Results from article PMC6753678, “Fueling Open Innovation for Malaria Transmission-Blocking Drugs: Hundreds of Molecules Targeting Early Parasite Mosquito Stages” (Frontiers in Microbiology, 2019).
pIC50: −log10 of the molar value.

Columns and labels:
HepG2 cells = test: HepG2 cytotoxicity assay; conditions: HepG2 cytotoxicity unified across screens; >25 set to 25.00
Outline: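 Percent inhibition derived from fluorescent viability readout, normalised to DMSO (negative) and 50 μM doxorubicin (positive). Compound incubation lasted 48 h at 37°C, 5% CO2, with 2,500 HepG2 cells/well in MEM plus 10% FBS and 1% NEAA.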

[1] = system: P. falciparum late stage (stages IV-V) gametocytes; parameters: method as in Almela et al 2016; conditions: P. falciparum late stage gametocyte ATP assay, TCAMS screen; ref Almela et al 2016; read-out: Pf GCT ATP IC50; cited from earlier work
[2] = system: P. falciparum late stage (stages IV-V) gametocytes; test: P. falciparum late stage gametocyte ATP depletion assay (Pf GC-ATP); conditions: 1: YES; 0: NO; >10-fold selectivity over cytotoxicity

Structure (SMILES) | Unified cytotox (HepG2 cells) [µM] | pIC50 [1] | Is compound selective in assay? Pf GC-ATP active? [2]
CC(CCCC(=O)Nc1ccc(CC(C)NCCc2cccc(Cl)c2)cc1)NCCc1cccc(Cl)c1 (stereo not drawn) [TCMDC-139798] | 4.50 | 6.09 | 0 (0: NO)
CC(CCCCC(=O)Nc1ccc(CC(C)NCCc2cccc(Cl)c2)cc1)NCCc1cccc(Cl)c1 (stereo not drawn) [TCMDC-139799] | 6.59 | 5.78 | 0 (0: NO)
CCCCCCCN1CC[C@@H](CCCc2ccnc3ccc(OCC4CCCNC4)cc23)[C@@H](CC)C1.Cl (stereo partly drawn) [TCMDC-139816] | 4.18 | 6.52 | 1 (1: YES)
CCCCCCCN1CC[C@@H](CCCc2ccnc3ccc(OCCC4CCNCC4)cc23)[C@@H](CC)C1.Cl [TCMDC-139819] | 4.50 | 6.38 | 1 (1: YES)
CCCCCCCN1CC[C@@H](CCCc2ccnc3ccc(OCCCCN/C(N)=N/O)cc23)[C@@H](CC)C1.O=C(O)C(=O)O [TCMDC-139839] | 17.20 | 6.33 | 1 (1: YES)
CC(Cc1ccc(COc2ccc(CC(CO)NCCc3cccc(Cl)c3)cc2)cc1)NCCc1cccc(Cl)c1.Cl (stereo not drawn) [TCMDC-139844] | 3.50 | 5.86 | 0 (0: NO)
Cl.O=C(/C=C/c1ccc(Cl)c(Cl)c1)N1CCC(CCN2CCC(c3c[nH]c4cnccc34)CC2)CC1 [TCMDC-140136] | 7.21 | 6.70 | 1 (1: YES)
Cc1cccc2[nH]cc(C3CCN(CC4CCC(NC(=O)/C=C/c5ccc(Cl)c(Cl)c5)CC4)CC3)c12.Cl (stereo not drawn) [TCMDC-140137] | 2.95 | 5.84 | 0 (0: NO)
COc1cc(NCC(C)CNCc2cn(Cc3ccccc3)c3ccccc23)nc2ccccc12 (stereo not drawn) [TCMDC-140496] | 5.00 | 5.77 | 0 (0: NO)
CN(C)CCN(Cc1ccccc1-c1ccc(CNCCc2ccccc2)cc1)C(=O)c1ccccc1.O=C(O)C(F)(F)F [TCMDC-140532] | 7.54 | 6.11 | 0 (0: NO)
CC(C)CNCc1cccc(-c2cccc(CN(CCCN3CCN(C)CC3)C(=O)/C=C/c3ccccc3)c2)c1.O=C(O)C(F)(F)F [TCMDC-140541] | 7.47 | 6.25 | 1 (1: YES)
CN1CCN(CCCN(Cc2cccc(-c3cccc(CNC4CCCC4)c3)c2)C(=O)/C=C/c2ccccc2)CC1.O=C(O)C(F)(F)F [TCMDC-140543] | 7.17 | 6.10 | 0 (0: NO)
CC(C)CNCc1cccc(-c2ccc(CN(CCCN3CCN(C)CC3)C(=O)/C=C/c3ccccc3)cc2)c1.O=C(O)C(F)(F)F [TCMDC-140545] | 6.65 | 6.20 | 1 (1: YES)
CC(C)CNCc1ccc(-c2ccc(CN(CCCN3CCN(C)CC3)C(=O)/C=C/c3ccccc3)cc2)cc1.O=C(O)C(F)(F)F [TCMDC-140546] | 6.99 | 6.00 | 0 (0: NO)
CC(C)CNCc1ccc(-c2cccc(CN(CCN(C)C)C(=O)CCC3CCCC3)c2)cc1.O=C(O)C(F)(F)F [TCMDC-140553] | 5.50 | 6.27 | 1 (1: YES)
CC(C)CNCc1cccc(-c2cccc(CN(CCCN3CCN(C)CC3)C(=O)CCC3CCCC3)c2)c1.O=C(O)C(F)(F)F [TCMDC-140554] | 4.55 | 6.22 | 0 (0: NO)
CN1CCN(CCCN(Cc2cccc(-c3cccc(CNC4CCCC4)c3)c2)C(=O)CCC2CCCC2)CC1.O=C(O)C(F)(F)F [TCMDC-140555] | 7.50 | 6.09 | 0 (0: NO)

Structure (SMILES) | Unified cytotox (HepG2 cells) [µM] | pIC50 [1] | Is compound selective in assay? Pf GC-ATP active? [2]
CC(C)CNCc1ccc(-c2ccc(CN(CCCN3CCN(C)CC3)C(=O)CCC3CCCC3)cc2)cc1.O=C(O)C(F)(F)F [TCMDC-140559] | 5.39 | 6.27 | 0 (0: NO)
CN1CCN(CCCN(Cc2ccc(-c3ccc(CNC4CCCC4)cc3)cc2)C(=O)CCC2CCCC2)CC1.O=C(O)C(F)(F)F [TCMDC-140560] | 6.00 | 6.28 | 1 (1: YES)
O=C(O)C(F)(F)F.O=C(c1cccs1)N(Cc1cccc(-c2ccc(CNC3CCCC3)cc2)c1)C1CCN(Cc2ccccc2)CC1 [TCMDC-140567] | 7.10 | 6.07 | 0 (0: NO)
CC(C)CNCc1cccc(-c2cccc(CN(CCN(C)C)C(=O)Nc3ccccc3)c2)c1.O=C(O)C(F)(F)F [TCMDC-140592] | 15.78 | 6.18 | 1 (1: YES)
CN1CCN(CCCN(Cc2ccc(-c3cccc(CNC4CCCC4)c3)cc2)C(=O)Nc2ccccc2)CC1.O=C(O)C(F)(F)F [TCMDC-140605] | 14.26 | 6.74 | 1 (1: YES)
O=C(NCCc1ccccc1)N(Cc1cccc(-c2ccc(CNC3CCCC3)cc2)c1)C1CCN(Cc2ccccc2)CC1.O=C(O)C(F)(F)F [TCMDC-140618] | 7.42 | 5.88 | 0 (0: NO)
CN(C)CCN(Cc1ccccc1-c1ccc(CNCCc2ccccc2)cc1)C(=O)NC1CCCCC1.O=C(O)C(F)(F)F [TCMDC-140626] | 6.40 | 6.46 | 1 (1: YES)
CC(C)CNCc1ccc(-c2cccc(CN(C(=O)NC3CCCCC3)C3CCN(Cc4ccccc4)CC3)c2)cc1.O=C(O)C(F)(F)F [TCMDC-140628] | 1.81 | 5.78 | 0 (0: NO)
CC(C)CNCc1cccc(-c2cccc(CN(CCCN3CCN(C)CC3)C(=O)NC3CCCCC3)c2)c1.O=C(O)C(F)(F)F [TCMDC-140633] | 16.75 | 5.75 | 0 (0: NO)
O=C(C1CC1c1ccccc1)N(Cc1ccc(-c2ccc(CNCCc3ccccc3)cc2)cc1)C1CCNCC1.O=C(O)C(F)(F)F (stereo not drawn) [TCMDC-141443] | 6.70 | 6.41 | 1 (1: YES)
O=C(CC1CCCC1)N(Cc1ccc(-c2ccc(CNC3Cc4ccccc4C3)cc2)cc1)CC1CCCCN1.O=C(O)C(F)(F)F (stereo not drawn) [TCMDC-141446] | 6.47 | 6.00 | 0 (0: NO)
CC(C)CC(=O)N(Cc1ccc(-c2ccc(CNC3Cc4ccccc4C3)cc2)cc1)C1CCNCC1.O=C(O)C(F)(F)F [TCMDC-141449] | 6.20 | 6.20 | 0 (0: NO)
O=C(COc1ccccc1)N(Cc1ccc(-c2ccc(CNC3Cc4ccccc4C3)cc2)cc1)C1CCNCC1.O=C(O)C(F)(F)F [TCMDC-141450] | 7.80 | 6.00 | 0 (0: NO)
CN1CCC(C(=O)N(Cc2ccc(-c3ccc(CNCCc4ccccc4)cn3)cc2)C2CCN(Cc3ccccc3)CC2)CC1.O=C(O)C(F)(F)F [TCMDC-141552] | 9.27 | 6.05 | 1 (1: YES)
CCN(CC)CCN(Cc1ccc(-c2ccc(C(F)(F)F)cc2)cc1)C(=O)c1ccc(-c2ccc(NC(=O)OC)cc2C)cc1 [TCMDC-141558] | 5.40 | 5.43 | 0 (0: NO)
CCN(CC)CCCNc1ncc2c(-c3ccc(NC(=O)Nc4cc(C(F)(F)F)ccc4F)cc3)nn(C)c2n1.O=C(O)C(F)(F)F [TCMDC-141583] | 9.50 | 5.46 | 0 (0: NO)
CCN(Cc1ccc(-c2ccc(C(F)(F)F)cc2)cc1)C(=O)Cn1c(SCc2cccc(F)c2F)cc(=O)c2cc(CN3CCCCC3)ccc21.Cl [TCMDC-141592] | 4.20 | 5.63 | 0 (0: NO)
